The source of these data is patent US20160002204A1 (Board of Regents, The University of Texas System, priority 2014, published 2016).

What is called IC50 is the midpoint of a concentration-inhibition curve. Usually EC50 stands for the concentration giving half of the maximal effect. Low readings indicate greater potency, high ones weaker potency.

Each structure is given as a SMILES string. Where only a bound is given, the exact number is not on record here.

In assay [1] the target is T1, GLS1 (purified recombinant human GAC) (Homo sapiens, UniProt O94925).
T1 sequence (O94925 55-598 isoform O94925-3 limits assumed): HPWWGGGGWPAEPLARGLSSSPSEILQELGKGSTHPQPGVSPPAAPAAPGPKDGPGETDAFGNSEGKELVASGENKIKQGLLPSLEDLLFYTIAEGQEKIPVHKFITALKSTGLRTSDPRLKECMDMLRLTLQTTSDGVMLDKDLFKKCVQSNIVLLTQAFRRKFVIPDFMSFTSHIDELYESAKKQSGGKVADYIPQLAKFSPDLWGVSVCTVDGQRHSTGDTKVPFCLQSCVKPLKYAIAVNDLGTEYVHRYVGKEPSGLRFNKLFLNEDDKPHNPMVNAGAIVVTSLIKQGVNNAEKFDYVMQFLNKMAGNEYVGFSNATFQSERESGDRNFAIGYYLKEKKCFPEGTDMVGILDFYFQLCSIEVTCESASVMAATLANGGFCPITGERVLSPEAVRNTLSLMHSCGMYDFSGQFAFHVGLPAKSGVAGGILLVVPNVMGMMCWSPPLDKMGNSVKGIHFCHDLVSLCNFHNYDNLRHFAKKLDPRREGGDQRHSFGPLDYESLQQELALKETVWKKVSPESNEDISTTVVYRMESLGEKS
Nature of the assay: GLS1 enzymatic activity assay (dual-coupled, Amplex UltraRed/resorufin). It counts as biochemical. The method in brief: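 GAC activity measured by coupling glutamate to glutamate oxidase and HRP, generating resorufin from Amplex UltraRed. Enzyme (2 nM) preincubated with 50 mM potassium phosphate 10 min at room temperature, then inhibitor 10 min; 1 mM glutamine substrate, 1% DMSO. Fluorescence 530/590 nm, kinetic or 20-min endpoint; IC50 from four-parameter logistic fit.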

For a further assay, the system named is A549 cells. Nature of the assay: A549 proliferation (viability) assay, Cell Titer Fluor, 72 hours. Type of assay: cell-based. Conditions: Homo sapiens. Summed up: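 Compound exposure lasted 72 h (final DMSO 0.5% v/v) on A549 cells plated at 1000 cells/well one day earlier. Cell Titer Fluor added, 30 min at 37 °C, fluorescence read; EC50 derived by four-parameter logistic curve fitting.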

Take `CC(NC(=O)c1cn(CCCCn2ccc(NC(=O)CC3CCCCC3)cc2=O)nn1)c1cccc(OC(F)(F)F)c1` (stereo not drawn) [Example 193, 1-{4-[4-(2-cyclohexylacetamido)-2-oxo-1,2-dihydropyridin-1-yl]butyl}-N-{1-[3-(trifluoromethoxy)phenyl]ethyl}-1H-1,2,3-triazole-4-carboxamide]: the IC50 in assay [1] lay within 100 to 500 nM. The molecule also registered an EC50 in the assay on A549 cells of 500 to 5000 nM.
Turning to `O=C(CC1CCCCC1)Nc1ccn(CCCCn2cc(C(=O)NCc3cc(C(F)(F)F)ccn3)nn2)c(=O)c1` [Example 194, 1-{4-[4-(2-cyclohexylacetamido)-2-oxo-1,2-dihydropyridin-1-yl]butyl}-N-{[4-(trifluoromethyl)pyridin-2-yl]methyl}-1H-1,2,3-triazole-4-carboxamide], the 50% inhibitory concentration (IC50) in assay [1] was < 100 nM. Moreover, in the assay with A549 cells, the EC50 is < 100 nM.
Take `Cc1ccc(CNC(=O)c2cn(CC(F)CCn3ccc(NC(=O)CC4CCCCO4)cc3=O)nn2)cn1` (stereo not drawn) [Example 195, 1-(2-fluoro-4-{4-[2-(oxan-2-yl)acetamido]-2-oxo-1,2-dihydropyridin-1-yl}butyl)-N-[(6-methylpyridin-3-yl)methyl]-1H-1,2,3-triazole-4-carboxamide]: the IC50 in assay [1] lay in the range of 100 to 500 nM. In the assay on A549 cells, this molecule had an EC50 of 500 to 5000 nM.
For the molecule `Cc1ccc(CNC(=O)c2cn(CC(F)CCn3ccc(NC(=O)CC4CCCOC4)cc3=O)nn2)cn1` (stereo not drawn) [Example 196, 1-(2-fluoro-4-{4-[2-(oxan-3-yl)acetamido]-2-oxo-1,2-dihydropyridin-1-yl}butyl)-N-[(6-methylpyridin-3-yl)methyl]-1H-1,2,3-triazole-4-carboxamide], the IC50 in assay [1] was < 100 nM. This molecule also came in with a concentration giving a half-maximal response (EC50) in the assay on A549 cells of 500 to 5000 nM.
As for `Cc1ccc(CNC(=O)c2cn(CC(F)CCn3ccc(NC(=O)CC4CCOCC4)cc3=O)nn2)cn1` (stereo not drawn) [Example 197, 1-(2-fluoro-4-{4-[2-(oxan-4-yl)acetamido]-2-oxo-1,2-dihydropyridin-1-yl}butyl)-N-[(6-methylpyridin-3-yl)methyl]-1H-1,2,3-triazole-4-carboxamide], the IC50 in assay [1] is < 100 nM. Moreover, in the assay with A549 cells, the EC50 was in the range of 500 to 5000 nM.
The like results for `Cc1ccc(CNC(=O)c2cn(CC(F)CCn3ccc(NC(=O)CC4CCSCC4)cc3=O)nn2)cn1` (stereo not drawn) [Example 198, 1-(2-fluoro-4-{2-oxo-4-[2-(thian-4-yl)acetamido]-1,2-dihydropyridin-1-yl}butyl)-N-[(6-methylpyridin-3-yl)methyl]-1H-1,2,3-triazole-4-carboxamide] were, in that order, < 100 nM and 100 to 500 nM.
Take `Cc1ccc(CNC(=O)c2cn(CC(F)CCn3ccc(NC(=O)CC4CCCC4)cc3=O)nn2)cn1` (stereo not drawn) [Example 199, 1-{4-[4-(2-cyclopentylacetamido)-2-oxo-1,2-dihydropyridin-1-yl]-2-fluorobutyl}-N-[(6-methylpyridin-3-yl)methyl]-1H-1,2,3-triazole-4-carboxamide]: the IC50 in assay [1] was < 100 nM. Besides, in the assay with A549 cells, the EC50 is < 100 nM.
On to `Cc1ccc(CNC(=O)c2cn(CC(F)CCn3ccc(NC(=O)CC4CCCO4)cc3=O)nn2)cn1` (stereo not drawn) [Example 200, 1-(2-fluoro-4-{2-oxo-4-[2-(oxolan-2-yl)acetamido]-1,2-dihydropyridin-1-yl}butyl)-N-[(6-methylpyridin-3-yl)methyl]-1H-1,2,3-triazole-4-carboxamide], for which the 50% inhibitory concentration (IC50) in assay [1] was in the range of 100 to 500 nM. In the assay with A549 cells, this molecule returned a half-maximal effective concentration (EC50) of 500 to 5000 nM.
In the case of `O=C(CC1CCC1)Nc1ccn(CCCCn2cc(C(=O)NCc3cccc(OC(F)(F)F)c3)nn2)c(=O)c1` [Example 201, 1-{4-[4-(2-cyclobutylacetamido)-2-oxo-1,2-dihydropyridin-1-yl]butyl}-N-{[3-(trifluoromethoxy)phenyl]methyl}-1H-1,2,3-triazole-4-carboxamide], in assay [1], the 50% inhibitory concentration (IC50) was < 100 nM. Also, the EC50 in the assay with A549 cells lay within 100 to 500 nM.
For `O=C(Cc1cccs1)Nc1ccn(CCCCn2cc(C(=O)NCc3cccc(OC(F)(F)F)c3)nn2)c(=O)c1` [Example 202, 1-(4-{2-oxo-4-[2-(thiophen-2-yl)acetamido]-1,2-dihydropyridin-1-yl}butyl)-N-{[3-(trifluoromethoxy)phenyl]methyl}-1H-1,2,3-triazole-4-carboxamide], in assay [1], the IC50 was < 100 nM. In the assay on A549 cells, this molecule registered an EC50 of 100 to 500 nM.
Regarding `O=C(Cc1ccsc1)Nc1ccn(CCCCn2cc(C(=O)NCc3cccc(OC(F)(F)F)c3)nn2)c(=O)c1` [Example 203, 1-(4-{2-oxo-4-[2-(thiophen-3-yl)acetamido]-1,2-dihydropyridin-1-yl}butyl)-N-{[3-(trifluoromethoxy)phenyl]methyl}-1H-1,2,3-triazole-4-carboxamide], the IC50 in assay [1] is < 100 nM. The EC50 with A549 cells lay in the range of 100 to 500 nM.
In the case of `O=C1CCC(CC(=O)Nc2ccn(CCCCn3cc(C(=O)NCc4cccc(OC(F)(F)F)c4)nn3)c(=O)c2)CC1` [Example 204, 1-(4-{2-oxo-4-[2-(4-oxocyclohexyl)acetamido]-1,2-dihydropyridin-1-yl}butyl)-N-{[3-(trifluoromethoxy)phenyl]methyl}-1H-1,2,3-triazole-4-carboxamide], the IC50 in assay [1] is < 100 nM. Also, in the assay on A549 cells, the EC50 lay in the range of 500 to 5000 nM.
For the molecule `CC(C)(C)OC(=O)N1CCC(CC(=O)Nc2ccn(CCCCn3cc(C(=O)NCc4cccc(OC(F)(F)F)c4)nn3)c(=O)c2)CC1` [Example 205, tert-butyl 4-{[(2-oxo-1-{4-[4-({[3-(trifluoromethoxy)phenyl]methyl}carbamoyl)-1H-1,2,3-triazol-1-yl]butyl}-1,2-dihydropyridin-4-yl)carbamoyl]methyl}piperidine-1-carboxylate], in assay [1], the concentration for half-maximal inhibition (IC50) is < 100 nM. In addition, in the assay on A549 cells, the EC50 was < 100 nM.
For `O=C(CC1CCCCO1)Nc1ccn(CCCCn2cc(C(=O)NCc3cccc(OC(F)(F)F)c3)nn2)c(=O)c1` (stereo not drawn) [Example 206, 1-(4-{4-[2-(oxan-2-yl)acetamido]-2-oxo-1,2-dihydropyridin-1-yl}butyl)-N-{[3-(trifluoromethoxy)phenyl]methyl}-1H-1,2,3-triazole-4-carboxamide], in assay [1], the IC50 is < 100 nM. The EC50 in the assay on A549 cells is < 100 nM.
In the case of `O=C(CC1CCC(O)CC1)Nc1ccn(CCCCn2cc(C(=O)NCc3cccc(OC(F)(F)F)c3)nn2)c(=O)c1` (stereo not drawn) [Example 208, 1-(4-{4-[2-(4-hydroxycyclohexyl)acetamido]-2-oxo-1,2-dihydropyridin-1-yl}butyl)-N-{[3-(trifluoromethoxy)phenyl]methyl}-1H-1,2,3-triazole-4-carboxamide], in assay [1], the IC50 was < 100 nM. This molecule also returned an EC50 in the assay on A549 cells of 500 to 5000 nM.
For the molecule `CNC1CCC(CC(=O)Nc2ccn(CCCCn3cc(C(=O)NCc4cccc(OC(F)(F)F)c4)nn3)c(=O)c2)CC1` (stereo not drawn) [Example 209, 1-[4-(4-{2-[4-(methylamino)cyclohexyl]acetamido}-2-oxo-1,2-dihydropyridin-1-yl)butyl]-N-{[3-(trifluoromethoxy)phenyl]methyl}-1H-1,2,3-triazole-4-carboxamide], the half-inhibitory concentration (IC50) in assay [1] was < 100 nM. In the assay with A549 cells, this molecule had a 50% effective concentration (EC50) of 500 to 5000 nM.
The like results for `O=C(CC1CCCC1)Nc1ccn(CCCCn2cc(C(=O)NCc3cccc(OC(F)(F)F)c3)nn2)c(=O)c1` [Example 210, 1-{4-[4-(2-cyclopentylacetamido)-2-oxo-1,2-dihydropyridin-1-yl]butyl}-N-{[3-(trifluoromethoxy)phenyl]methyl}-1H-1,2,3-triazole-4-carboxamide] were, in that order, < 100 nM and < 100 nM.
`CC(C)(C)OC(=O)N[C@H]1CCC[C@H](C(=O)Nc2ccn(CCCCn3cc(C(=O)NCc4cccc(OC(F)(F)F)c4)nn3)c(=O)c2)C1` [Example 211, tert-butyl N-[(1S,3S)-3-[(2-oxo-1-{4-[4-({[3-(trifluoro-methoxy)phenyl]methyl}carbamoyl)-1H-1,2,3-triazol-1-yl]butyl}-1,2-dihydropyridin-4-yl)carbamoyl]cyclohexyl]carbamate]: the IC50 in assay [1] is < 100 nM. The molecule also gave an EC50 in the assay on A549 cells of 100 to 500 nM.
With `O=C(CC1CCCCC1)Nc1ccn(CCC(F)Cn2cc(C(=O)NCc3cccc(OC(F)(F)F)c3)nn2)c(=O)c1F` (stereo not drawn) [Example 212, 1-{4-[4-(2-cyclohexylacetamido)-3-fluoro-2-oxo-1,2-dihydropyridin-1-yl]-2-fluorobutyl}-N-{[3-(trifluoromethoxy)phenyl]methyl}-1H-1,2,3-triazole-4-carboxamide], the IC50 in assay [1] is < 100 nM. For the same molecule, the concentration for a half-maximal effect (EC50) with A549 cells is < 100 nM.
With `O=C(CN1CCOCC1)Nc1ccn(CCC(F)Cn2cc(C(=O)NCc3cccc(OC(F)(F)F)c3)nn2)c(=O)c1` (stereo not drawn) [Example 213, 1-(2-fluoro-4-{4-[2-(morpholin-4-yl)acetamido]-2-oxo-1,2-dihydropyridin-1-yl}butyl)-N-{[3-(trifluoromethoxy)phenyl]methyl}-1H-1,2,3-triazole-4-carboxamide], in assay [1], the IC50 lay in the range of 100 to 500 nM. Further, in the assay with A549 cells, the concentration for a half-maximal effect (EC50) fell in the range of 500 to 5000 nM.
`O=C(CC1CCC1)Nc1ccn(CCC(F)Cn2cc(C(=O)NCc3cc(Cl)ccc3F)nn2)c(=O)c1` (stereo not drawn) [Example 214, N-[(5-chloro-2-fluorophenyl)methyl]-1-{4-[4-(2-cyclobutylacetamido)-2-oxo-1,2-dihydropyridin-1-yl]-2-fluorobutyl}-1H-1,2,3-triazole-4-carboxamide]: the half-maximal inhibitory concentration (IC50) in assay [1] was < 100 nM. In addition, the EC50 in the assay with A549 cells is 100 to 500 nM.
